From US7989466B2, “Methods to inhibit or augment an inflammatory response” (Cambridge Enterprise Limited, priority 1999, dated 2011)
Read-outs that look alike come from different tables or passages of the source. Marks after values point to notes of the source that are not given here. Positions of bridges follow the written chain, without caps; N, C: chain ends. Non-standard residues stand in square brackets, D forms with d. Residues, ends and D or L forms follow the SMILES beside them. No end group written: not given here.

Experiments:
[1] = tested on: MIP1α induced THP-1 migration; assay: THP-1 trans-well migration assay, MIP1α as chemoattractant; assay type: cell-based, human; conditions: for % inhibition at 100 μM versus MIP1α, THP-1 migration: n.s. = no statistically significant inhibition
Summary of the method: (§1)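 5×10^4 THP-1 cells with serially diluted peptide in upper chamber, 5 µm filter, recombinant human chemokine 50 ng/ml (5.9 nM) in lower chamber. Incubated 4 h at 37 °C. Migrated cells counted by MTT staining, A595 read against a THP-1 standard curve.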

[2] = tested on: chemokine-induced THP-1 migration; assay: THP-1 trans-well migration assay, panel of chemokines (MCP-1, MIP1α, IL-8, SDF1α); assay type: cell-based, human; conditions: for effect on THP-1 migration induced by the chemokine panel, in words: IL-8, SDF1α; for CC SPECIFICITY: average inhibitory ED50 versus SDF1 and IL8 divided by average inhibitory ED50 versus MCP-1 and MIP1α
[3] = tested on: chemokine receptors on THP-1 cells; assay: Binding to chemokine receptors on THP-1 cells; design: species or system human
Procedure: In general, specific binding is calculated as the amount of labeled agent bound in the absence of cold competitor minus the amount of labeled agent bound in the presence of cold competitor. The amount of specific binding in the presence of varied amounts of cold competitor can be used to determine the association constant for the agent, as well as the number of binding sites on the cell for the agent, using, for example, Scatchard Analysis. The agent may be labeled by radiolabeling (e.g., iodination) or with a suitable biochemical tag (e.g., biotin) or by addition of a photoactivatable crosslinking group. Agents with an association constant lower than 100 μM (i.e., which bind more strongly than an agent with an association constant of 100 μM) and which have at least about 2,500, preferably at least about 10,000, and more preferably greater than 25,000, binding sites per cell for at least one cell type which expresses a chemokine receptor, fall under the scope of this invention. THP-1 cells have at least about 5,000 MCP-1 receptors/cell.
For example, monocytes are suspended in RPMI 1640 medium without bicarbonate containing 0.2% bovine serum albumin and 0.1% azide. Radiolabeled chemokine peptide is incubated with 1-2×10^6 cells, e.g., THP-1 cells, in the presence or absence of increasing concentrations of unlabeled chemokine (MCP-1, MCP-3, MCP-4, RANTES or MIP-1α) for 15 minutes at 37° C. in a 96-well plate in a final volume of 0.2 ml (e.g., PBS+0.5% FCS). After the incubation, 0.5 ml of ice-cold wash buffer (20 mM Tris, 0.5 M NaCl, pH 7.4) is added, and cells are collected onto a polyethyleneimine-treated Whatman GF/C filter using a Brandall cell harvester. Filters are washed with 4 ml of cold wash buffer, and the radioactivity bound to the filters is counted in a γ-counter.
For Scatchard analysis, the absorbance readings at 450 nm were calibrated, by reference to a standard curve in which known amounts of labeled peptide were coupled to derivatized sepharose beads (activated thiol-sepharose 4B; Sigma T8512) via the cysteine residue in each peptide. Briefly, known amounts (1 fmol to 1 pmol) of biotin-labeled peptide were incubated with 1 mg of activated thiol-sepharose beads in 100 μl of PBS at 37° C. for 1 hour. Free activated thiols were then blocked by addition of cysteine to a final concentration of 10 mM. The peptide-conjugated beads were then washed 5 times in PBS and treated exactly as for the cells described above. The absorbance at 450 nm obtained when a known amount of peptide was coupled to the beads was used to construct a standard curve which was used to convert the absorbance readings obtained with cells into number of molecules of labeled peptide which had bound.

[4] = tested on: IL8 induced THP-1 migration; assay: THP-1 trans-well migration assay, IL-8 as chemoattractant; assay type: cell-based, human; conditions: for % inhibition at 100 μM versus IL8, THP-1 migration: n.s. = no statistically significant inhibition
Procedure: To determine whether an agent inhibits a chemokine-induced activity, such as macrophage recruitment, varying amounts of the agent are mixed with cells in the presence of a known chemoattractant. For example, a range of known concentrations of an agent, e.g., a chemokine peptide, is incubated with a defined number (e.g., 10^4-10^6) of human THP-1 monocyte cells in individual wells of the top compartment of a trans-well plate. Chemokine (such as MCP-1, MIP1α, IL8 or SDF-1α), at a concentration known to cause significant migration of THP-1 cells in the trans-well migration assay, is placed in the lower compartment (FIG. 1). Cells are then incubated at 37° C. for a period sufficient to allow migration, e.g., 4 hours. After incubation, the cells are gently removed from the top of the filter with a pipette, 20 μl of 20 mM EDTA in simple PBS is added into each top well, and incubated for 20 minutes at 4° C. The filter is carefully flushed with media using a gentle flow, and removed. A standard curve consisting of a two-fold dilution series of THP-1 cells (in 29 μl) is prepared to accurately quantify the number of cells that have migrated. Migrated cells are stained with 3 μl of MTT stock dye solution which is added directly into each well (5 mg/ml in RPMI-1640 without phenol red, Sigma Chemical Co.) and incubated at 37° C. for 4 hours. The media is carefully aspirated from each well, and the converted dye is solubilized by 20 μl of DMSO. Absorbance of converted dye is measured at a wavelength of 595 nm using an ELISA plate reader. The number of migrated cells in each well is then determined by interpolation of the standard curve (see also Imai et al., J. Biol. Chem., 272, 15036 (1997)).
For this assay, THP-1 cells were maintained at a density of 4×10^5 cells per ml in RPMI-1640 supplemented with 10% fetal calf serum+20 μM 2-mercaptoethanol. Chemotaxis was induced in a 96-well disposable chemotaxis chamber fitted with a […] polycarbonate filter (PVP free, ChemoTX, Neuroprobe Inc., Cabin John). Twenty-nine μl of chemoattractant (recombinant human chemokine; 50 ng/ml, i.e., 5.9 nM) or control (100 ng/ml TGFβ) was added to the lower compartment of each well. The framed filter was aligned with the holes in the corner of the filter frame and placed over the wells. Five×10^4 THP-1 cells in 25 μl of RPMI-1640 were added to the upper compartment. Peptides were dissolved in Milli Q water and then serially diluted in culture medium. In most cases, the serially diluted peptides were added to the upper compartment of the chemotaxis chamber. The chamber was incubated at 37° C. in a humidified atmosphere of 5% CO2 for 4 hours.
After incubation, the cells were gently removed from the top of the filter with a pipette, 20 μl of 20 mM EDTA in PBS was added into each top well, and the mixture was incubated for 20 minutes at 4° C. The filter was then carefully flushed with media using a gentle flow, and removed. A standard curve was prepared to accurately quantify the number of THP-1 cells that had migrated. The curve was based on a two-fold dilution series of THP-1 cells (top standard 100,000 cells in 29 μl). Cells which had migrated, and in separate wells, the cells in the standards, were stained with 3 μl of MTT stock solution which was added directly into each well (5 mg/ml in RPMI 1640 without phenol red, Sigma Chemical Co.) and incubated at 37° C. for 4 hours. The media was carefully aspirated from each well, and the converted dye was solubilized by 20 μl of DMSO. Absorbance of converted dye was measured at a wavelength of 595 nm using an ELISA plate reader. The number of cells that had migrated in each well was determined by interpolation of the standard curve.

[5] = tested on: SDF-1α induced THP-1 migration; assay: THP-1 trans-well migration assay, SDF-1α as chemoattractant; assay type: cell-based, human; conditions: for % inhibition at 100 μM versus SDF-1α, THP-1 migration: n.s. = no statistically significant inhibition
Summary of the method: as §1

[6] = n.s. = no statistically significant inhibition (p > 0.05)
[7] = ns = not significantly different from control

CC[C@@H](C)[C@H]1NC(=O)[C@@H](CCC(N)=O)NC(=O)[C@H](N)CSSC[C@H](C(N)=O)NC(=O)[C@@H](CC(C)C)NC(=O)[C@@H](CC(=O)O)NC(=O)[C@H]2CCCN2C(=O)[C@@H](CCCCN)NC(=O)[C@@H](CCC(N)=O)NC(=O)[C@@H](CCCCN)NC(=O)[C@@H](Cc2c[nH]c3ccccc23)NC1=O (H-[dC][dQ][dI][dW][dK][dQ][dK][dP][dD][dL][dC]-NH2; disulfide 1-11; N-terminus assumed)
shift of the MIP-1α dose response curve to higher concentrations ([1]; sub-maximal dose of inhibitor in the upper chamber): 5-100 fold | effect on THP-1 migration induced by the chemokine panel, in words ([2]; MCP-1, MIP1α): inhibited THP-1 cell migration induced by MCP-1, MIP1α, IL-8, and SDF1, with very similar ED50s | association constant for chemokine receptors on THP-1 cells [3]: 100 to 500 nM | number of binding sites per cell, THP-1 cells [3]: about 150,000 per cell

C=CCCCCCCCCC(=O)N[C@H]1CCC(=O)NC1=O [A-I (NR58.4), [3S]-3-(undec-10-enoylamino)piperidine-2,6-dione]
EC50 ([1]; Homo sapiens, THP-1, read-out: ED50, MIP1α chemotaxis assay): 0.0002 µM | EC50 ([4]; Homo sapiens, THP-1, read-out: ED50, IL-8 chemotaxis assay): < 0.01 µM | EC50 ([5]; Homo sapiens, THP-1, read-out: ED50, SDF1α chemotaxis assay): 0.008 µM

NCCCC[C@H](NC(=O)[C@H](CCC(N)=O)NC(=O)[C@@H](N)CCCCN)C(=O)O [KQK]
ED50 versus MIP1α, inhibition of THP-1 migration [1, 6]: n.s. | ED50 versus IL8, inhibition of THP-1 migration [4, 6]: n.s. | ED50 versus SDF-1α, inhibition of THP-1 migration [5, 6]: n.s. | percentage inhibition of migration induced by SDF1α ([5]; tripeptide at 100 μM, mean ± range, dash = no statistically significant reduction in migration): 29 ± 1% | specificity for the cognate chemokine over all the other chemokines tested ([2]; KQK MCP-1, SEE MIP1-α): more than 100 fold | Chemokine antagonist ([2]; active against at least one of IL-8, SDF-1α, MCP-1, MIP1α): +++++ | CC SPECIFICITY [2]: >100 | EC50 ([2]; footnote f, KQK MCP-1, SEE MIP1α, KLK SDF1, KEN IL8, read-out: ED50 of a tripeptide against the one chemokine it is highly specific for): 6 µM | number of binding sites per cell, THP-1 cells [3]: about 15,000 per cell | association constant for chemokine receptors on THP-1 cells ([3]; range printed with mixed units): 500 nM-1 μM

EICADPKQKWVQ [peptide 3(1-12)[MCP-1]]
% inhibition at 100 μM versus MIP1α, THP-1 migration [1]: 99% | EC50 ([1]; n.s. = no statistically significant inhibition (p > 0.05), read-out: ED50 versus MIP1α, inhibition of THP-1 migration): 8 ± 1 µM | % inhibition at 100 μM versus IL8, THP-1 migration [4]: 103% | EC50 ([4]; n.s. = no statistically significant inhibition (p > 0.05), read-out: ED50 versus IL8, inhibition of THP-1 migration): 14 ± 1 µM | % inhibition at 100 μM versus SDF-1α, THP-1 migration [5]: 107% | EC50 ([5]; n.s. = no statistically significant inhibition (p > 0.05), read-out: ED50 versus SDF-1α, inhibition of THP-1 migration): 10 µM | % inhibition at 100 μM of migration induced by any of the chemokines tested ([2]; 100 μM, THP-1): > 99% | EC50 ([2]; average inhibitory ED50 for inhibition of THP-1 migration induced by each of the chemokines, read-out: AVERAGE ED50): 10 µM | CC SPECIFICITY [2]: 1.5 | selectivity ratio (CC versus CXC chemokines) ([2]; greater than 1 = greater inhibition of CC chemokines relative to CXC chemokines): 1.5 | number of binding sites per cell, THP-1 cells [3]: 1000 per cell | association constant (ka) for binding to THP-1 cells ([3]; listed as Peptide 3): about 10 μM | association constant (ka) for binding to THP-1 cells ([3]; listed as peptide 3): 7 µM | Kd ([3]; read-out: affinity constant for binding to THP-1 cells in the presence of 100 μM peptide 2): 8 µM

SYRRITSSKCPKEAV [peptide 2(1-15)[MCP-1]]
% inhibition at 100 μM versus MIP1α, THP-1 migration [1]: n.s. | ED50 versus MIP1α, inhibition of THP-1 migration [1, 6]: n.s. | MIPIa ED-50 [1, 7]: ns | % inhibition at 100 μM versus IL8, THP-1 migration [4]: n.s. | ED50 versus IL8, inhibition of THP-1 migration [4, 6]: n.s. | % inhibition at 100 μM versus SDF-1α, THP-1 migration [5]: n.s. | ED50 versus SDF-1α, inhibition of THP-1 migration [5, 6]: n.s. | SDF1a ED-50 [5, 7]: ns | effect on THP-1 migration induced by the chemokine panel, in words ([2]; MCP-1, MIP1α): no significant effect | AVERAGE ED50, peptide 2 family: estimated ka for binding to THP-1 cells [3]: 2^e μM | association constant (ka) for binding to THP-1 cells [3]: 2 µM | number of binding sites per cell, THP-1 cells [3]: 130,000 per cell | association constant for chemokine receptors on THP-1 cells ([3]; listed as peptide 2): 250 nM | association constant for chemokine receptors on THP-1 cells ([3]; listed as peptide 2(1-15)[MCP1]): 300 nM
